# Measured values published in patent US8048916B2, “Ester compound and use thereof” (Sumitomo Chemical Company, Limited, priority 2007, dated 2011).
# System: houseflies
# Test: Test Example 2: knock-down test on houseflies in a 70 cm cubic chamber (KT50)
# Type: in vivo, housefly
# Conditions: 0.00625% (w/v), 0.7 ml sprayed into 70 cm cubic chamber, knock-down counted until 10 minutes
# Protocol: Each of the compositions of the compounds (1) and (2) of the present invention obtained by Formulation Example 7 was diluted with mixed liquid of dichloromethane/deodorized kerosine=1/9 (w/w) so that the effective ingredient concentration became 0.00625% (w/v) to prepare a test solution.
# Ten houseflies were released in a cubic chamber having a side of 70 cm to spray 0.7 ml of the above-mentioned oil-based preparation into the chamber through a small window on the side face of the chamber at a spray pressure of 0.9 kg/cm^2 with a spray gun. Then, the number of houseflies knocked down was counted with time until 10 minutes later (two repetitions each). The effect was evaluated with 4 grades of ⊙ to × as described below by means of a KT50 value calculated from the obtained results.
# As a control test, the similar tests were performed by using as comparative reference compounds 2,3,5,6-tetrafluoro-4-methoxymethylbenzyl (1R,3S)-3-((E)-2-cyano-2-fluorovinyl)-2,2-dimethylcyclopropanecarboxylate
row,Structure (SMILES),Efficacy (grade by KT50 value)
1,"COCc1c(F)c(F)c(COC(=O)[C@@H]2C(/C=C(\Cl)C#N)C2(C)C)c(F)c1F (stereo in doubt) [compound (1), 2,3,5,6-tetrafluoro-4-methoxymethylbenzyl (1R,3S)-3-((Z)-2-chloro-2-cyanovinyl)-2,2-dimethylcyclopropanecarboxylate]",◯ (KT50 value is 2 minutes or more and less than 3 minutes)
2,"COCc1c(F)c(F)c(COC(=O)[C@@H]2C(/C=C(/Cl)C#N)C2(C)C)c(F)c1F (stereo in doubt) [compound (2), 2,3,5,6-tetrafluoro-4-methoxymethylbenzyl (1R,3S)-3-((E)-2-chloro-2-cyanovinyl)-2,2-dimethylcyclopropanecarboxylate]",⊙ (KT50 value is less than 2 minutes)
3,"COCc1c(F)c(F)c(COC(=O)[C@@H]2C(C=C(F)C#N)C2(C)C)c(F)c1F (stereo in doubt) [control compound (A), 2,3,5,6-tetrafluoro-4-methoxymethylbenzyl (1R,3S)-3-((E)-2-cyano-2-fluorovinyl)-2,2-dimethylcyclopropanecarboxylate]",X (KT50 value is 4 minutes or more)
4,"COCc1c(F)c(F)c(COC(=O)[C@@H]2C(C=C(F)C#N)C2(C)C)c(F)c1F (stereo in doubt) [control compound (B), 2,3,5,6-tetrafluoro-4-methoxymethylbenzyl (1R,3S)-3-((Z)-2-cyano-2-fluorovinyl)-2,2-dimethylcyclopropanecarboxylate]",Δ (KT50 value is 3 minutes or more and less than 4 minutes)
